How the values were obtained:
5-HT2A receptor = biological target: T1, 5-HT2A receptor (Homo sapiens, UniProt P28223); assay: [3H]-DOB binding assay (method b), affinity to the 5-HT2A receptor; conditions: Ki from IC50 in nM; for Ki: read-out: Pki (Pki=-log10 Ki), 5-HT2A, Method b (converted)
T1 construct: expressed in transfected cells
Protocol: (§1) The binding of compounds of formula I in accordance with the invention to selected serotonin […] was determined in vitro by standard methods. The preparations were investigated in accordance with the tests given hereinafter:
b) Affinity to the 5-HT2A receptor in accordance with the [3H]- DOB binding assay according to the method of T. Branchek et. al., Molecular Pharmacology 38, 604-609 (1990).
(§2) The Pki values (Pki=-log10 Ki) of the test substances are given. The Ki value is defined by the following formula: [formula] with the IC50 values being those concentrations of test compounds in nM at which 50% of the receptor-bonded ligands are displaced. [L] is the ligand concentration and the KD value is the dissocation constant of the ligand.

5-HT2C receptor [1] = biological target: T2, 5-HT2C receptor (Rattus norvegicus, UniProt P08909); assay: [3H]-5-HT binding assay (method a), affinity to the 5-HT2C receptor; design: expressed in transfected cells; conditions: Ki from IC50 in nM; for Ki: read-out: Pki (Pki=-log10 Ki), 5-HT2C, Method a (converted)
T2 sequence (P08909 33-460): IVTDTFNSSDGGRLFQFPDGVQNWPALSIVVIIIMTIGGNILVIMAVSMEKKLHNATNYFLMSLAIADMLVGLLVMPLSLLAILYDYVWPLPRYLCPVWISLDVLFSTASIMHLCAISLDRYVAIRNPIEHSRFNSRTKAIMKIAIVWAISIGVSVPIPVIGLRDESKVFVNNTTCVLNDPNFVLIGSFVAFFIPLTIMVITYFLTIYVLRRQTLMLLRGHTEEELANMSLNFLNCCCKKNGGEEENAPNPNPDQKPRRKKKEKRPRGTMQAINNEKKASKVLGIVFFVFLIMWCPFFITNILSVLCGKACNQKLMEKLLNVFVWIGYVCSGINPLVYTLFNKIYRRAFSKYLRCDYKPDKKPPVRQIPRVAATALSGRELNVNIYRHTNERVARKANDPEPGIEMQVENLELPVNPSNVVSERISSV
Protocol: as §1
a) Affinity to the 5-HT2C receptor in accordance with the [3H]-5-HT binding assay according to the method of S.J. Peroutka et al., Brain Research 584, 191-196 (1992).
as §2

5-HT2C receptor [2] = biological target: T2, 5-HT2C receptor; assay: Penile erection (rats); assay type: in vivo; design: following the administration of the test substance to the animals; from tissue; host or cells: whole living rat (in vivo); conditions: po, 0.75 h, p.o., erections within 45 minutes following administration, read-out: ID50 (mg/kg) (p.o.), penile erection
Protocol: It has been shown that penile erection is dependent on the stimulation of 5HT2C receptors (see Berendsen & Broekkamp, Eur. J. Pharm., 135, 179-184 (1987).
The number of penile erections was determined within 45 minutes following the administration of the test substance to the animals. The ED50 is the dosage which causes 50% of these erections.

T1 sequence (P28223 whole entry): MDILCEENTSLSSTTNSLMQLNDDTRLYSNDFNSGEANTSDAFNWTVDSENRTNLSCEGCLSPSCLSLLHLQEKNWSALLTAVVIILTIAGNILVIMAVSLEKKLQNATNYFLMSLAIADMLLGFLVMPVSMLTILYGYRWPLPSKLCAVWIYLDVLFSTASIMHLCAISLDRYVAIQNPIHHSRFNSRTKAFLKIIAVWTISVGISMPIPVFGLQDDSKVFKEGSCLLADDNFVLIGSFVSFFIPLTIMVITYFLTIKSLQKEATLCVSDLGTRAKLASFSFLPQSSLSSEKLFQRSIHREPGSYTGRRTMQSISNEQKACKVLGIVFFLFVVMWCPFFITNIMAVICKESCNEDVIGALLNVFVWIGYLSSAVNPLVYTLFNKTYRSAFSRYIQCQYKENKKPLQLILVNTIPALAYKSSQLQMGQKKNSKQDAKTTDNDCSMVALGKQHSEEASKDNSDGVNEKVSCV

SMILES | Ki (5-HT2A receptor) | Ki (5-HT2C receptor [1]) | ED50 (5-HT2C receptor [2]) | Pki (Pki=-log10 Ki), 5-HT2A, Method b (5-HT2A receptor) | Pki (Pki=-log10 Ki), 5-HT2C, Method a (5-HT2C receptor [1])
N=C(N)c1cc2c(F)cc(F)cc2o1 [Example 10, 4.6-Difluoro-benzofuran-2-carboxamidine] | 631 nM | 7.94 nM |  |  | 
COc1cc(-c2ccccc2)cc2cc(C(=N)N)oc12 [OMe H Ph H H] | 158 nM | 1580 nM |  |  | 
N=C(N)c1cc2cccc(OC3CCCC3)c2o1 [O-Cyclo-pent H H H H] | 251 nM | 501 nM |  |  | 
Cc1ccc2cc(C(=N)N)oc2c1 [H Me H H H] | > 10000 nM | 1000 nM |  |  | 
CCCc1c(F)ccc2cc(C(=N)N)oc12 [Example 8, 6-Fluoro-7-propylbenzofuran-2-carboxamidine] | 158 nM | 20 nM |  |  | 
COCc1cccc2cc(C(=N)N)oc12 [CH2 --O-Me H H H H] | 3160 nM | 158 nM |  |  | 
NC(=NO)c1cc2ccccc2o1 [H H H H CH, benzofuran-2-carboxamidoxime] | > 10000 nM | > 10000 nM | 2 mg/kg |  | 
NC(=NO)c1cc2cc(F)ccc2o1 [Example 15, 5-Fluorobenzofuran-2-carboxamidoxime] | > 10000 nM | 4270 nM |  |  | 
N=C(N)c1cc2cccc(O)c2o1 [CH H H H H] |  |  |  | < 5 | 6.2
CC(C)Oc1cccc2cc(C(=N)N)oc12 [Oi-Pr H H H H] | 1000 nM | 200 nM |  |  | 
N=C(N)c1cc2ccccc2o1 [H H H H H, benzofuran-2-carboxamidine] | 5010 nM | 79.4 nM | 5 mg/kg |  | 
N=C(N)c1cc2cc(Cl)cc(Cl)c2o1 [Cl H Cl H H] | 631 nM | 2510 nM |  |  | 
N=C(N)c1cc2cccc(Br)c2o1 [Br H H H H] | 1580 nM | 126 nM |  |  | 
N=C(N)c1cc2ccc(Cl)cc2o1 [H Cl H H H] | 5010 nM | 1260 nM |  |  | 
N=C(N)c1cc2cc(Br)cc(Br)c2o1 [Br H Br H H] | 316 nM | 2000 nM |  |  | 
CCCc1ccc(F)c2cc(C(=N)N)oc12 [Example 11] | 501 nM | 7.94 nM |  |  | 
N=C(N)c1cc2cc(Cl)cc(Br)c2o1 [Br H Cl H H] | 316 nM | 5010 nM |  |  | 
N=C(N)c1cc2cc(Cl)ccc2o1 [H H Cl H H] | 1580 nM | 1580 nM |  |  | 
N=C(N)c1cc2cccc(OC3CCCCC3)c2o1 [O-Cyclo-hex H H H H] | 158 nM | 631 nM |  |  | 
CCOCc1cccc2cc(C(N)=NO)oc12 [Example 17, 7-Ethoxymethylbenzofuran-2-carboxamidoxime] | > 10000 nM | > 10000 nM |  |  | 
CCCOc1cccc2cc(C(=N)N)oc12 [OPr H H H H] | > 10000 nM | 158 nM |  |  | 
N=C(N)c1cc2c(F)cccc2o1 [Example 9, 4-Fluoro-benzofuran-2-carboxamidine] | 2000 nM | 39.8 nM | 2.9 mg/kg |  | 
CSc1cccc2cc(C(=N)N)oc12 [SMe H H H H] | 1000 nM | 79.4 nM |  |  | 
N=C(N)c1cc2ccc(F)cc2o1 [Example 6, 6-Fluorobenzofuran-2-carboxamidine] | 2510 nM | 158 nM | 3 mg/kg |  | 
COc1ccc2oc(C(=N)N)cc2c1 [H H OMe H H] | > 10000 nM | 2510 nM |  |  | 
N=C(N)c1cc2cccc(OCc3ccccc3)c2o1 [OBn H H H H] | 126 nM | 63.1 nM |  |  | 

SMILES | Ki (5-HT2A receptor) | Ki (5-HT2C receptor [1]) | ED50 (5-HT2C receptor [2]) | Pki (Pki=-log10 Ki), 5-HT2A, Method b (5-HT2A receptor) | Pki (Pki=-log10 Ki), 5-HT2C, Method a (5-HT2C receptor [1])
N=C(N)c1cc2cccc(-c3ccccc3)c2o1 [Ph H H H H] | 158 nM | 251 nM |  |  | 
COc1ccc2cc(C(=N)N)oc2c1 [H OMe H H H] | 6310 nM | 631 nM |  |  | 
N=C(N)c1cc2cccc(F)c2o1 [F H H H H] | 5010 nM | 794 nM |  |  | 
NC(=NO)c1cc2cc(F)c(F)cc2o1 [Example 13, 5,6-Difluorobenzofuran-2-carboxamidoxime] | > 10000 nM | > 10000 nM |  |  | 
CCOc1cccc2cc(C(N)=NO)oc12 [Example 14, 7-Ethoxybenzofuran-2-carboxamidoxime] | > 10000 nM | 5500 nM |  |  | 
N=C(N)c1cc2cc(F)ccc2o1 [Example 5, 5-Fluorobenzofuran-2-carboxamidine] | 2000 nM | 158 nM |  |  | 
N=C(N)c1cc2ccc3c(c2o1)OCC3 [--O--CH2 --CH2 -- H H H] | 3160 nM | 398 nM |  |  | 
COc1ccc(C)c2cc(C(=N)N)oc12 [OMe H H Me H] | 2510 nM | 100 nM |  |  | 
CC(C)CCOc1cccc2cc(C(=N)N)oc12 [Oi-Pent H H H H] | 158 nM | 501 nM |  |  | 
COc1cccc2cc(C(=N)N)oc12 [Example 3, 7-Methoxybenzofuran-2-carboxamidine] | > 10000 nM | 158 nM |  |  | 
N=C(N)c1cc2cccc(Cl)c2o1 [Cl H H H H] | 3980 nM | 158 nM |  |  | 
CCOc1cccc2cc(C(=N)N)oc12 [Example 4, 7-Ethoxybenzofuran-2-carboxamidine] | > 10000 nM | 50.1 nM |  |  | 
CCOCc1cccc2cc(C(=N)N)oc12 [Example 7, 7-Ethoxymethylbenzofuran-2-carboxamidine] | 2000 nM | 100 nM |  |  | 
Cc1cccc2cc(C(=N)N)oc12 [Me H H H H] | 2510 nM | 398 nM |  |  | 
CCOc1cccc2oc(C(=N)N)cc12 [Example 2, 4-Ethoxybenzofuran-2-carboxamidine] | > 10000 nM | 158 nM |  |  | 
COc1cc(Br)cc2cc(C(=N)N)oc12 [OMe H Br H H] | 2510 nM | 126 nM |  |  | 
CC(C)c1cccc2cc(C(=N)N)oc12 [i-Prop H H H H] | 794 nM | 63.1 nM |  |  | 
NC(=NO)c1cc2c(F)cccc2o1 [Example 18, 4-Fluorobenzofuran-2-carboxamidoxime] | 2510 nM | 79.4 nM |  |  | 
CCCc1cccc2cc(C(=N)N)oc12 [n-Pr H H H H] | 1000 nM | 79.4 nM |  |  | 
NC(=NO)c1cc2ccc(F)cc2o1 [Example 16, 6-Fluorobenzofuran-2-carboxamidoxime] | > 10000 nM | 4370 nM | 1.6 mg/kg |  | 
CC(C)COc1cccc2cc(C(=N)N)oc12 [Oi-Bu H H H H] | 1000 nM | 2000 nM |  |  | 
COc1cccc2oc(C(=N)N)cc12 [H H H OMe H] | 2000 nM | 158 nM |  |  | 
N=C(N)c1cc2c(F)ccc(Br)c2o1 [Example 12, 7-Bromo-4-fluorobenzofuran-2-carboxamidine] | > 10000 nM | > 10000 nM |  |  | 
N=C(N)c1cc2cc(F)c(F)cc2o1 [Example 1, 5,6-Difluorobenzofuran-2-carboxamidine] | 2000 nM | 158 nM | 6 mg/kg |  | 
CSCc1cccc2cc(C(=N)N)oc12 [CH2 --S-Me H H H H] | 1000 nM | 251 nM |  |  | 
CC(C)OCc1cccc2cc(C(=N)N)oc12 [CH2 --O-iPr H H H H] | 2000 nM | 398 nM | 5.1 mg/kg |  | 

— patent US5955495A, “Method of treating diseases of the CNS” (Hoffmann-La Roche Inc., priority 1997, dated 1999)
